Data on 2 compounds can be found in US8921271B2, “Herbicidal composition comprising flazasulfuron and metribuzin” (Ishihara Sangyo Kaisha, Ltd., priority 2011, dated 2014).

The test system of test [1] is summergrass, giant foxtail, redroot pigweed and threeseeded copperleaf. Description: Test Example 5: field test, foliar treatment, weed coverage (residual activity). It is filed as in vivo. To be noted: for Weed coverage (%) 6th day after treatment / Weed coverage (%) 20th day after treatment / Weed coverage (%) 33rd day after treatment: field, foliar treatment with 0.25 vol % Agral, coverage relative to non-treated area; for change in weed coverage: on the 20th day after the treatment, single active ingredient, field test. The text has this: In a field in which summergrass (Digitaria ciliaris (Retz.) Koel), giant foxtail (Setaria faberi Herrm.), redroot pigweed (Amaranthus retroflexus L.) and threeseeded copperleaf (Acalypha australis L.) emerged, was compartmentalized into compartments of 0.5×1 m. When summergrass reached from 5 to 10 leaf stage, giant foxtail reached from 6 to 7 leaf stage, threeseeded copperleaf reached from 4 to 10 leaf stage and redroot pigweed reached from 6 to 9 leaf stage, SHIBAGEN DF (tradename) and Unimark (tradename) in predetermined amounts were diluted with water (corresponding to 200 L/ha) containing 0.25 vol % of an agricultural adjuvant Agral (tradename) and applied for foliar treatment by a small sprayer in each compartment.
On the 6th, 20th and 33rd days after the treatment, the weed coverage (%) of the above four types of weeds in each compartment was visually observed, and the results are shown in Table 5 and FIG. 1. The weed coverage (%) was calculated in accordance with the following formula.
A: (the area of the ground surface covered with the weed aerial part (leaves and stem) in the treated area)
B: (the area of the ground surface covered with the weed aerial part (leaves and stem) in the non-treated area) Weed coverage(%)=(A/B)×100
In FIG. 1, x-x represents the weed coverage in the area treated with flazasulfuron, ▴-▴ represents the weed coverage in the area treated with metribuzin, and ●-● represents the weed coverage in the area treated with flazasulfuron and metribuzin in combination.

Another test relates to shattercane. Briefly: Test Example 4: pot test, soil treatment, visual growth inhibition of shattercane. To be noted: Sorghum bicolor, soil treatment on the day after sowing, 14th day after treatment, read-out: Growth inhibition rate (%) of shattercane, Measured value. In kind it is in vivo, Sorghum bicolor (L.) Moench. How it is done:
Upland field soil was put into a 1/1,000,000 ha pot, and seeds of shattercane (Sorghum bicolor (L.) Moench.) were sown. On the next day, SHIBAGEN DF (tradename) and Unimark (tradename) in predetermined amounts were diluted with water corresponding to 300 L/ha and applied for soil treatment by a small sprayer.
On the 14th day after the treatment, the state of growth of shattercane was visually observed, and the growth inhibition rate (%) obtained in the same manner as in Test Example 1 is shown in Table 4.

Test [2] concerns goosegrass. Briefly: Test Example 1: pot test, soil treatment, visual growth inhibition of goosegrass. It is filed as in vivo, Eleusine indica (L.) Gaertn. To be noted: Eleusine indica, 24 h, soil treatment one day after sowing, 14th day after treatment, read-out: Growth inhibition rate (%) of goosegrass, Measured value. As for the experimental part: Upland field soil was put into a 1/1,000,000 hectare pot, and seeds of goosegrass (Eleusine indica (L.) Gaertn.) were sown. One day later, water dispersible granules containing flazasulfuron as an active ingredient (tradename: SHIBAGEN DF, manufactured by Ishihara Sangyo Kaisha, Ltd.) and water dispersible granules containing metribuzin as an active ingredient (tradename: Unimark, manufactured by UPL) in predetermined amounts were diluted with water corresponding to 200 L/ha and applied for soil treatment by a small sprayer.
On the 14th day after the treatment, the state of growth of goosegrass was visually observed to determine the growth inhibition rate (%) (measured value) in accordance with the following evaluation standard. Further, in accordance with the Colby's formula, the growth inhibition rate (%) (calculated value) was calculated. Growth inhibition rate(%)=0 (equivalent to the non-treated area) to 100 (complete kill)

Test [3] relates to goosegrass. Briefly: Test Example 2: pot test, foliar treatment at 5 leaf stage, visual growth inhibition of goosegrass. It is filed as in vivo, Eleusine indica (L.) Gaertn. As to conditions: Eleusine indica, foliar treatment at 5 leaf stage with 0.25 vol % Agral, 28th day after treatment, read-out: Growth inhibition rate (%) of goosegrass, Measured value. How it is done:
Upland field soil was put into a 1/1,000,000 ha pot, and seeds of goosegrass (Eleusine indica (L.) Gaertn.) were sown. When goosegrass reached 5 leaf stage, SHIBAGEN DF (tradename) and Unimark (tradename) in predetermined amounts were diluted with water (corresponding to 200 L/ha) containing 0.25 vol % of an agricultural adjuvant (tradename: Agral, manufactured by Syngenta crop protection) and applied for foliar treatment by a small sprayer.
On the 28th day after the treatment, the state of growth of goosegrass was visually observed, and the growth inhibition rate (%) obtained in the same manner as in Test Example 1 is shown in Table 2.

The next test has as its system ivy-leaved morningglory. Description: Test Example 3: pot test, treatment the day after sowing, visual growth inhibition of ivy-leaved morningglory. To be noted: Ipomoea, treatment on the day after sowing, 14th day after treatment, read-out: Growth inhibition rate (%) of ivy-leaved morningglory, Measured value. It is filed as in vivo, Ipomoea hederacea (L.) Jacq. How it is done:
Upland field soil was put into a 1/1,000,000 ha pot, and seeds of ivy-leaved momingglory (Ipomoea hederacea (L.) Jacq.) were sown. On the next day, SHIBAGEN DF (tradename) and Unimark (tradename) in predetermined amounts were diluted with water corresponding to 300 L/ha and applied for […] by a small sprayer. On the 14th day after the treatment, the state of growth of ivy-leaved momingglory was visually observed, and the growth inhibition rate (%) obtained in the same manner as in Test Example 1 is shown in Table 3.

Take `COc1cc(OC)nc(NC(=O)NS(=O)(=O)c2ncccc2C(F)(F)F)n1` [Flazasulfuron, 1-(4,6-dimethoxypyrimidin-2-yl)-3-(3-trifluoromethyl-2-pyridylsulfonyl)urea]: in test [1] (dose 37.5 g/ha), the “Weed coverage (%) 6th day after treatment” value was found to be 26%, the “Weed coverage (%) 20th day after treatment” value amounted to 30% and the “Weed coverage (%) 33rd day after treatment” value was 65%. The “change in weed coverage” value in test [1] was “an increase in the weed coverage was confirmed”. Besides, the inhibition (in general, the change of the read-out against control, counted positive when it falls) at 15 g/ha in the test on shattercane (dose 15 g/ha) turned out to be 30%. For the same compound, the inhibition at 18.75 g/ha in the test on goosegrass [2] (dose 18.75 g/ha, 0 = non-treated, 100 = complete kill) stood at 30%. For the same compound, the inhibition at 37.5 g/ha with goosegrass [3] (dose 37.5 g/ha) was determined as 25%. Also, the inhibition at 100 g/ha in the test with ivy-leaved morningglory (dose 100 g/ha) came to 80%.
Regarding `CSc1nnc(C(C)(C)C)c(=O)n1N` [Metribuzin, 4-amino-6-tertiary butyl-3-methylthio-1,2,4-triazin-5(4H)-one], in test [1] (dose 1,200 g/ha), the “Weed coverage (%) 6th day after treatment” value is recorded as 19%, the “Weed coverage (%) 20th day after treatment” value is 24% and the “Weed coverage (%) 33rd day after treatment” value was 35%. For the same compound, the “change in weed coverage” value in test [1] is reported as “an increase in the weed coverage was confirmed”. Besides, the inhibition at 2000 g/ha in the test on shattercane (dose 2,000 g/ha) came to 20%. The inhibition at 300 g/ha in the test on goosegrass [2] (dose 300 g/ha) came out at 55%. Also, the inhibition at 600 g/ha in the test with goosegrass [2] (dose 600 g/ha) worked out at 73%. Further, the inhibition at 800 g/ha with goosegrass [3] (dose 800 g/ha) came to 83%. The inhibition at 1000 g/ha in the test on goosegrass [3] (dose 1,000 g/ha) turned out to be 90%. Moreover, the inhibition at 300 g/ha in the test with ivy-leaved morningglory (dose 300 g/ha) came out at 0%.
